Assay results taken from patent US4263427A, “Monensin urethane derivatives” (priority 1979, dated 1981).
≈ marks a conversion by molar mass, not a printed value. Like-named read-outs stand apart in the source and are kept apart here.

Legend:
[1] = Oral antihypertensive activity: blood pressure and heart rate (Table 9); assay type: in vivo
Description: Compounds of formula I, and their pharmaceutically acceptable salts are orally active as antihypertensive agents.

Eimeria tenella = assay: Anti-coccidial effect of monensin urethanes added to the feed of infected chickens (Table 7); assay type: in vivo; details: infected untreated control 3.0, less than 2.5 significant
Protocol: This test utilizes ten chickens per drug group. Ten chickens are employed as a weight control and ten chickens as an infected control. The drug is given 48 hours in advance of the infection. One gm. of the test drug is mixed in a mechanical mixer with a sufficient amount of chicken feed to result in the desired dosage. The infection consists of approximately 200,000 oocysts given orally by pipette. The tests lasts for eleven days and then the surviving birds are autopsied and examined for gross lesions in the ceca. The test birds are rated according to the number of survivors and the number of cecal lesions. The results are expressed as average degree of infection (A.D.I.). An average degree of infection of less than 2.5 is considered to be significant.

Bacillus megaterium 8CU = assay: Minimum Inhibitory Concentration, agarwell diffusion assay (Table 6); assay type: cell-based; details: for MIC: Priestia megaterium, 8CU, read-out: Minimum Inhibitory Concentration, Bacillus megaterium 8CU
Description: (§1) (a) Lowest twofold dilution giving zone of inhibition in the agarwell
(§2) (b) NRRL collection number, all the rest ate ATCC numbers.

Staph. aureus 6538 = assay: as above; assay type: cell-based; details: for MIC: Staphylococcus aureus, 6538, read-out: Minimum Inhibitory Concentration, Staph. aureus 6538
Description: as §1, §2

Bacillus sp. E 27859 = assay: as above; assay type: cell-based; details: for MIC: Bacillus
Description: as §1, §2

Bacillus subtilis 583 = assay: as above; assay type: cell-based
Description: as §1, §2

[2] = system: Streptococcus cellulosac 3313; assay: as above; assay type: cell-based; details: for MIC: Streptococcus, 3313, read-out: Minimum Inhibitory Concentration, Streptococcus cellulosac 3313
Description: as §1, §2

[3] = system: Streptococcus faecium 8043; assay: as above; assay type: cell-based
Description: as §1, §2

Sarcina lutca 9341 = assay: as above; assay type: cell-based; details: Sarcina, 9341, read-out: Minimum Inhibitory Concentration, Sarcina lutca 9341
Description: as §1, §2

[4] = system: Paceilomyces variotl 25820; assay: as above; assay type: cell-based; details: for MIC: read-out: Minimum Inhibitory Concentration, Paceilomyces variotl 25820
Description: as §1, §2

Bacillus sp. TA 27860 = assay: as above; assay type: cell-based; details: for MIC: Bacillus
Description: as §1, §2

MycoBacterium phiel 355 = assay: as above; assay type: cell-based; details: Mycobacterium, 355, read-out: Minimum Inhibitory Concentration, MycoBacterium phiel 355
Description: as §1, §2

Treponema hyodysenteriae = assay: Activity against Treponema hyodysenteriae (MIC, blood agar plates); assay type: cell-based; details: Brachyspira hyodysenteriae, 48 h, 42° C., anaerobic
Description: Testing for activity against Treponema hyodysenteriae, a cause of swine dysentery consisted of inoculation of blood agar plates containing a series of two or fourfold dilutions of the monensin urethane derivatives with tenfold dilutions of the T. hyodysenteriae strain.

Plasmodium berghei = assay: Oral antimalarial activity against Plasmodium berghei in mice; assay type: in vivo; details: p.o.
Description: Compounds of formula I wherein R4 is aryl, haloaryl or nitroaryl and their pharmaceutically acceptable salts are orally active as antimalarial agents.

rumen fluid = details: 50 ppm; control 100
[5] = SP.E27859, Bacillus sp. E 27859, read-out: Minimum Inhibitory Concentration
[6] = Bacillus subtilis, 583, Bacillus subtilis 583 (NRRL), read-out: Minimum Inhibitory Concentration
[7] = Enterococcus faecium, 8043, Streptococcus faecium 8043, read-out: Minimum Inhibitory Concentration
[8] = SP.TA27860, Bacillus sp. TA 27860, read-out: Minimum Inhibitory Concentration

SMILES | MIC (Bacillus megaterium 8CU) | MIC (Staph. aureus 6538) | MIC (Bacillus sp. E 27859; [5]) | MIC (Bacillus subtilis 583; [6]) | MIC [2] | MIC [3, 7] | MIC (Sarcina lutca 9341) | MIC [4] | MIC (Bacillus sp. TA 27860; [8]) | MIC (MycoBacterium phiel 355) | MIC (Treponema hyodysenteriae) | Average Degree of Infected (A.D.I.) (Eimeria tenella; 125 ppm in feed) | Average Degree of Infected (A.D.I.) (Eimeria tenella; 75 ppm in feed) | also measured
CCC1(C2OC(C3OC(O)(COC(=O)Nc4ccc(Cl)cc4)C(C)CC3C)CC2C)CCC(C2(C)CCC3(CC(O)C(C)C(C(C)C(OC)C(C)C(=O)O)O3)O2)O1 (stereo not drawn) [Monensin A, 4-chlorophenylurethane] | 0.2 µg/mL (≈ 0.243 µM) | 0.4 µg/mL (≈ 0.485 µM) | 0.02 µg/mL (≈ 0.0243 µM) | 0.4 µg/mL (≈ 0.485 µM) | 0.8 µg/mL (≈ 0.97 µM) | 0.05 µg/mL (≈ 0.0606 µM) | 0.2 µg/mL (≈ 0.243 µM) | 3.1 µg/mL (≈ 3.76 µM) | 0.2 µg/mL (≈ 0.243 µM) | 0.8 µg/mL (≈ 0.97 µM) | 0.08 µg/mL (≈ 0.097 µM) |  |  | Day of Maximum Change, Blood Pressure ([1]; oral dose 1 mg/kg): 5 days; Day of Maximum Change, Heart Rate ([1]; oral dose 1 mg/kg): 5 days; Maximum Change (%), Blood Pressure ([1]; oral dose 1 mg/kg): 20%; Maximum Change (%), Heart Rate ([1]; oral dose 1 mg/kg): 19%; Mean Blood Pressure at time of maximum effect ([1]; oral dose 1 mg/kg): 179 mm Hg; Mean Blood Pressure before treatment ([1]; oral dose 1 mg/kg): 224 mm Hg; Average Degree of Infected (A.D.I.) (Eimeria tenella; 65 ppm in feed): 0.8; ED50 (Plasmodium berghei): 2.3 mg/kg
CCC1(C2OC(C3OC(O)(COC(=O)Nc4ccc(F)cc4)C(C)CC3C)CC2C)CCC(C2(C)CCC3(CC(O)C(C)C(C(C)C(OC)C(C)C(=O)O)O3)O2)O1 (stereo not drawn) [Monensin A, 4-fluorophenylurethane] | 0.4 µg/mL (≈ 0.495 µM) | 1.6 µg/mL (≈ 1.98 µM) | 0.2 µg/mL (≈ 0.248 µM) | 0.8 µg/mL (≈ 0.99 µM) | 3.1 µg/mL (≈ 3.84 µM) | 0.1 µg/mL (≈ 0.124 µM) | 0.8 µg/mL (≈ 0.99 µM) | 3.1 µg/mL (≈ 3.84 µM) | 0.8 µg/mL (≈ 0.99 µM) | 3.1 µg/mL (≈ 3.84 µM) | 0.08 µg/mL (≈ 0.099 µM) | 1.0 |  | Day of Maximum Change, Blood Pressure ([1]; oral dose 3 mg/kg): 2 days; Maximum Change (%), Blood Pressure ([1]; oral dose 3 mg/kg): 17%; Mean Blood Pressure at time of maximum effect ([1]; oral dose 3 mg/kg): 182 mm Hg; Mean Blood Pressure before treatment ([1]; oral dose 3 mg/kg): 220 mm Hg
CCC1(C2OC(C3OC(O)(COC(=O)Nc4ccc(I)cc4)C(C)CC3C)CC2C)CCC(C2(C)CCC3(CC(O)C(C)C(C(C)C(OC)C(C)C(=O)O)O3)O2)O1 (stereo not drawn) [Monensin A, 4-iodophenylurethane] |  |  |  |  |  |  |  |  |  |  |  | 0.1 |  | 
CCC1(C2OC(C3OC(O)(COC(=O)Nc4ccc(C)cc4)C(C)CC3C)CC2C)CCC(C2(C)CCC3(CC(O)C(C)C(C(C)C(OC)C(C)C(=O)O)O3)O2)O1 (stereo not drawn) [Monensin A, 4-methylphenylurethane, Monensin A, 4-methyl phenylurethane] | 0.2 µg/mL (≈ 0.249 µM) | 0.4 µg/mL (≈ 0.497 µM) | 0.05 µg/mL (≈ 0.0622 µM) | 0.4 µg/mL (≈ 0.497 µM) | 0.8 µg/mL (≈ 0.995 µM) | 0.2 µg/mL (≈ 0.249 µM) | 0.4 µg/mL (≈ 0.497 µM) | 1.6 µg/mL (≈ 1.99 µM) | 0.2 µg/mL (≈ 0.249 µM) | 1.6 µg/mL (≈ 1.99 µM) |  |  | 1.1 | Day of Maximum Change, Blood Pressure ([1]; oral dose 1 mg/kg): 3 days; Day of Maximum Change, Heart Rate ([1]; oral dose 1 mg/kg): 4 days; Maximum Change (%), Blood Pressure ([1]; oral dose 1 mg/kg): 16%; Maximum Change (%), Heart Rate ([1]; oral dose 1 mg/kg): 15%; Mean Blood Pressure at time of maximum effect ([1]; oral dose 1 mg/kg): 182 mm Hg; Mean Blood Pressure before treatment ([1]; oral dose 1 mg/kg): 217 mm Hg
CCC1(C2OC(C3OC(O)(COC(=O)Nc4ccc([N+](=O)[O-])cc4)C(C)CC3C)CC2C)CCC(C2(C)CCC3(CC(O)C(C)C(C(C)C(OC)C(C)C(=O)O)O3)O2)O1 (stereo not drawn) [Monensin A, 4-nitrophenylurethane] |  |  |  |  |  |  |  |  |  |  |  |  | 0.5 | 
CCC1(C2OC(C3OC(O)(COC(=O)NC4CCCCC4)C(C)CC3C)CC2C)CCC(C2(C)CCC3(CC(O)C(C)C(C(C)C(OC)C(C)C(=O)O)O3)O2)O1 (stereo not drawn) [Monensin A, cyclohexylurethane] | 0.4 µg/mL (≈ 0.502 µM) | 1.6 µg/mL (≈ 2.01 µM) |  |  | 3.1 µg/mL (≈ 3.89 µM) |  | 0.8 µg/mL (≈ 1 µM) | 3.1 µg/mL (≈ 3.89 µM) |  | 3.1 µg/mL (≈ 3.89 µM) | 0.4 µg/mL (≈ 0.502 µM) | 0.8 |  | MIC (Bacillus sp. E 27859; SP.E27859, read-out: Minimum Inhibitory Concentration, Bacillus sp. E 27859): 0.2 µg/mL (≈ 0.251 µM); MIC (Bacillus subtilis 583; Bacillus subtilis, 583, read-out: Minimum Inhibitory Concentration, Bacillus subtilis 583 (NRRL)): 0.8 µg/mL (≈ 1 µM); MIC ([3]; Enterococcus faecium, 8043, read-out: Minimum Inhibitory Concentration, Streptococcus faecium 8043): 0.1 µg/mL (≈ 0.126 µM); MIC (Bacillus sp. TA 27860; SP.TA27860, read-out: Minimum Inhibitory Concentration, Bacillus sp. TA 27860): 0.6 µg/mL (≈ 0.754 µM)
CCC1(C2OC(C3OC(O)(COC(=O)Nc4ccccc4)C(C)CC3C)CC2C)CCC(C2(C)CCC3(CC(O)C(C)C(C(C)C(OC)C(C)C(=O)O)O3)O2)O1 (stereo not drawn) [Monensin A, phenylurethane] | 0.4 µg/mL (≈ 0.506 µM) | 0.8 µg/mL (≈ 1.01 µM) | 0.05 µg/mL (≈ 0.0633 µM) | 0.4 µg/mL (≈ 0.506 µM) | 3.1 µg/mL (≈ 3.92 µM) | 0.1 µg/mL (≈ 0.127 µM) | 0.8 µg/mL (≈ 1.01 µM) | 3.1 µg/mL (≈ 3.92 µM) | 0.4 µg/mL (≈ 0.506 µM) | 3.1 µg/mL (≈ 3.92 µM) | 0.08 to 0.4 µg/mL (≈ 0.101 to 0.506 µM) |  | 0.9 | Day of Maximum Change, Blood Pressure ([1]; oral dose 10 mg/kg): 2 days; Maximum Change (%), Blood Pressure ([1]; oral dose 10 mg/kg): 26%; Mean Blood Pressure at time of maximum effect ([1]; oral dose 10 mg/kg): 170 mm Hg; Mean Blood Pressure before treatment ([1]; oral dose 10 mg/kg): 229 mm Hg; ED50 (Plasmodium berghei): 4 mg/kg
COC(C(C)C(=O)O)C(C)C1OC2(CCC(C)(C3CCC(C)(C4OC(C5OC(O)(COC(=O)NC(C)c6ccccc6)C(C)CC5C)CC4C)O3)O2)CC(O)C1C [Monensin B, (R)-1-phenethylurethane] |  |  |  | 1.6 µg/mL (≈ 1.99 µM) |  |  | 3.1 µg/mL (≈ 3.86 µM) |  |  | 12.5 µg/mL (≈ 15.5 µM) | 0.4 µg/mL (≈ 0.497 µM) |  |  | Rate of Gas Production, Percent Production of Control Fermentations (rumen fluid): 103.3%; Total VFA, Percent Production of Control Fermentations (rumen fluid): 82.7%; Minimum Inhibitory Concentration (Bacillus megaterium 8CU; Bacillus megaterium 8CU, listed as Monensin B,(R)-1-phenethylurethane): 1.6 meg/ml; Minimum Inhibitory Concentration (Staph. aureus 6538; Staph. aureus 6538, listed as Monensin B,(R)-1-phenethylurethane): 6.3 meg/ml; Minimum Inhibitory Concentration (Bacillus sp. E 27859; Bacillus sp. E 27859, listed as Monensin B,(R)-1-phenethylurethane): 0.4 meg/ml; Minimum Inhibitory Concentration ([2]; Streptococcus cellulosac 3313, listed as Monensin B,(R)-1-phenethylurethane): 3.1 meg/ml; Minimum Inhibitory Concentration ([3]; Streptococcus faecium 8043, listed as Monensin B,(R)-1-phenethylurethane): 0.8 meg/ml; Minimum Inhibitory Concentration ([4]; Paceilomyces variotl 25820, listed as Monensin B,(R)-1-phenethylurethane): 3.1 meg/ml; Minimum Inhibitory Concentration (Bacillus sp. TA 27860; Bacillus sp. TA 27860, listed as Monensin B,(R)-1-phenethylurethane): 1.6 meg/ml
